This passage reports IC50 results from ChEMBL document CHEMBL1909046, “DrugMatrix in vitro pharmacology data”.

Beta-1 adrenergic receptor, sequence (P08588 whole entry): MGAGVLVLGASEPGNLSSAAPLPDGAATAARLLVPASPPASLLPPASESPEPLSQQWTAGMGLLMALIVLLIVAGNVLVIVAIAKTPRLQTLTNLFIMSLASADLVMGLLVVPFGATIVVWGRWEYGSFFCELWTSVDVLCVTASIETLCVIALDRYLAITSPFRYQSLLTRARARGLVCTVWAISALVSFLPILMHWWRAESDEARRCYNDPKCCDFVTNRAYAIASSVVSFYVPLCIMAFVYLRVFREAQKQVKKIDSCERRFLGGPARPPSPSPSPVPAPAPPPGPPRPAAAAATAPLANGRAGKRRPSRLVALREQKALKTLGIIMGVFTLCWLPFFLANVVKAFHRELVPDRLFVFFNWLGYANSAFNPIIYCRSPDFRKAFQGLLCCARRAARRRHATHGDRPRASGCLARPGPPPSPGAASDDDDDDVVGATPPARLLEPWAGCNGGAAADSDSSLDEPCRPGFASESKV
5-hydroxytryptamine receptor 1B, sequence (P28564 whole entry): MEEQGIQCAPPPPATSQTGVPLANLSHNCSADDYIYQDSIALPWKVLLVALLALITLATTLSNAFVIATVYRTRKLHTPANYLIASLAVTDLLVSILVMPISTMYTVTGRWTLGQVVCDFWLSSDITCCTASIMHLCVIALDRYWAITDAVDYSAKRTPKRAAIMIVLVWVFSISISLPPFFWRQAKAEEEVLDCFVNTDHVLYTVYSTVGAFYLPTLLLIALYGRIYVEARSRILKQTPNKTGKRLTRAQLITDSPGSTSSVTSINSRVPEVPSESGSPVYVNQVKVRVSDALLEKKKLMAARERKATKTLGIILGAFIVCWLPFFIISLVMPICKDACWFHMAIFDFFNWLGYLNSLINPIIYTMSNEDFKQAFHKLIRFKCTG

The target in the first assay is T1, C-X-C chemokine receptor type 1 (Homo sapiens, UniProt P25024). Note: in other assays of this panel Not Active means under 50% inhibition at 10 µM.
T1 sequence (P25024 whole entry): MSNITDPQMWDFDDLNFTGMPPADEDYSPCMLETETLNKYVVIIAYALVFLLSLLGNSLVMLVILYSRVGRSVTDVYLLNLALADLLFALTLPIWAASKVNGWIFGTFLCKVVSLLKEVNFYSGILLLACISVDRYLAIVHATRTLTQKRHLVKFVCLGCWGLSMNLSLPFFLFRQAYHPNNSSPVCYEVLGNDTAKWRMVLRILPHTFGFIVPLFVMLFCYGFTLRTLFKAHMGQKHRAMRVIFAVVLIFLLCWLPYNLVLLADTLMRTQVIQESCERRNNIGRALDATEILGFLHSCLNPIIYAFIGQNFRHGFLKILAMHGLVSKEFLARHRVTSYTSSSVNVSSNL
Test: not given
Settings: not given
What is called IC50 is the point on the concentration scale where inhibition reaches its midpoint. As for `CC(C)(C)NC(=O)[C@@H]1C[C@@H]2CCCC[C@@H]2CN1C[C@@H](O)[C@H](Cc1ccccc1)NC(=O)[C@H](CC(N)=O)NC(=O)c1ccc2ccccc2n1`, the IC50 result is reported as “Not Active”.

For the molecule `CC(=O)[C@@]1(O)CC[C@H]2[C@@H]3C[C@H](C)C4=CC(=O)CC[C@]4(C)[C@H]3CC[C@@]21C`, the IC50 result is “Not Active”.

Turning to `Cc1nc2n(c(=O)c1CCN1CCC(c3noc4cc(F)ccc34)CC1)CCCC2` [RISPERIDONE], the IC50 result is on record as “Not Active”.

For the molecule `Nc1nc2nc[nH]c2c(=S)[nH]1` [THIOGUANINE], the IC50 entry is on record as “Not Active”.

Take `COc1nc(C)nc(Cl)c1NC1=NCCN1` [MOXONIDINE]: the IC50 entry was “Not Active”.

Turning to `N[C@@H](Cc1cc(I)c(Oc2ccc(O)c(I)c2)c(I)c1)C(=O)O` [LIOTHYRONINE], the IC50 result is listed as “Not Active”.

For `C[C@@H]1CN(c2c(F)c(N)c3c(=O)c(C(=O)O)cn(C4CC4)c3c2F)C[C@H](C)N1` [SPARFLOXACIN], the IC50 result is reported as “Not Active”.

As to `N[C@@H](Cc1ccc(O)c(O)c1)C(=O)O` [LEVODOPA], the IC50 result is recorded as “Not Active”.

The target in the next assay is T2, C-X-C chemokine receptor type 2 (Homo sapiens, UniProt P25025). Note: in other assays of this panel Not Active means under 50% inhibition at 10 µM.
T2 sequence (P25025 whole entry): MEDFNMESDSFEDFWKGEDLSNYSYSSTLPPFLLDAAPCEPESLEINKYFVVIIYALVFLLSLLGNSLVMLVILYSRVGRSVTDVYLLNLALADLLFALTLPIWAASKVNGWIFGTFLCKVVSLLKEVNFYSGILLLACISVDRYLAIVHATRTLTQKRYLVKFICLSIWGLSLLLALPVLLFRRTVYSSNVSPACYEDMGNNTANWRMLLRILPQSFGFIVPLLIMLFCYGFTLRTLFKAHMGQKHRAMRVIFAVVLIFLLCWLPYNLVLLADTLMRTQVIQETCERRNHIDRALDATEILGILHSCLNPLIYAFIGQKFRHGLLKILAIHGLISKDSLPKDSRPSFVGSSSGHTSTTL
Test: not given
In kind it is cell membranes, Membrane. The note with it: cho-k1.
With `CC(C)(C)NC(=O)[C@@H]1C[C@@H]2CCCC[C@@H]2CN1C[C@@H](O)[C@H](Cc1ccccc1)NC(=O)[C@H](CC(N)=O)NC(=O)c1ccc2ccccc2n1`, the IC50 result is listed as “Not Active”.

In the case of `CC(=O)[C@@]1(O)CC[C@H]2[C@@H]3C[C@H](C)C4=CC(=O)CC[C@]4(C)[C@H]3CC[C@@]21C`, the IC50 result is on record as “Not Active”.

In the case of `Cc1nc2n(c(=O)c1CCN1CCC(c3noc4cc(F)ccc34)CC1)CCCC2` [RISPERIDONE], the IC50 entry is reported as “Not Active”.

As for `Nc1nc2nc[nH]c2c(=S)[nH]1` [THIOGUANINE], the IC50 entry is “Not Active”.

As to `COc1nc(C)nc(Cl)c1NC1=NCCN1` [MOXONIDINE], the IC50 entry was “Not Active”.

On to `N[C@@H](Cc1cc(I)c(Oc2ccc(O)c(I)c2)c(I)c1)C(=O)O` [LIOTHYRONINE], for which the IC50 entry is listed as “Not Active”.

For the molecule `C[C@@H]1CN(c2c(F)c(N)c3c(=O)c(C(=O)O)cn(C4CC4)c3c2F)C[C@H](C)N1` [SPARFLOXACIN], the IC50 entry is recorded as “Not Active”.

Consider `N[C@@H](Cc1ccc(O)c(O)c1)C(=O)O` [LEVODOPA], for which the IC50 result is on record as “Not Active”.

The next assay addresses T3, Thromboxane-A synthase (Homo sapiens, UniProt P24557).
T3 sequence (P24557 whole entry): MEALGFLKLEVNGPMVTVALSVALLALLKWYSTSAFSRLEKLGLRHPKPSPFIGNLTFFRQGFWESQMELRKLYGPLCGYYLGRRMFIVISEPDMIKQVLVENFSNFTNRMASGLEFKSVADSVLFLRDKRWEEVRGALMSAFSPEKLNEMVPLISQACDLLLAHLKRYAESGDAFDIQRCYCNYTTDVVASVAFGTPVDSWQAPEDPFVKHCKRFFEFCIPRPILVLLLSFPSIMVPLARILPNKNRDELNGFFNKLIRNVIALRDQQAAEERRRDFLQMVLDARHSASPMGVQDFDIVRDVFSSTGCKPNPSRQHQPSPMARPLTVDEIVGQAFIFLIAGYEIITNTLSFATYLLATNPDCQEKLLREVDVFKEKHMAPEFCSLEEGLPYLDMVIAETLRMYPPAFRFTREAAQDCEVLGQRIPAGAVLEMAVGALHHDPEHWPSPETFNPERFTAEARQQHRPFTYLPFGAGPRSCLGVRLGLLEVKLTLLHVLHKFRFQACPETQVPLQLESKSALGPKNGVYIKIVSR
Description: biochemical. Type of assay: tissue-based, Platelet. The note with it: platelet.
On to `CC(=O)[C@@]1(O)CC[C@H]2[C@@H]3C[C@H](C)C4=CC(=O)CC[C@]4(C)[C@H]3CC[C@@]21C`, for which the IC50 result is recorded as “Not Active”.

As for `Cc1nc2n(c(=O)c1CCN1CCC(c3noc4cc(F)ccc34)CC1)CCCC2` [RISPERIDONE], the IC50 entry is “Not Active”.

Turning to `Nc1nc2nc[nH]c2c(=S)[nH]1` [THIOGUANINE], the IC50 result is on record as “Not Active”.

As for `COc1nc(C)nc(Cl)c1NC1=NCCN1` [MOXONIDINE], the IC50 entry is “Not Active”.

For `N[C@@H](Cc1cc(I)c(Oc2ccc(O)c(I)c2)c(I)c1)C(=O)O` [LIOTHYRONINE], the 50% inhibitory concentration (IC50) result is given as “Not Active”.

Turning to `C[C@@H]1CN(c2c(F)c(N)c3c(=O)c(C(=O)O)cn(C4CC4)c3c2F)C[C@H](C)N1` [SPARFLOXACIN], the IC50 entry is given as “Not Active”.

For the molecule `N[C@@H](Cc1ccc(O)c(O)c1)C(=O)O` [LEVODOPA], the IC50 entry is “Not Active”.

Staying with this assay, now noted: read-out: IC50.
For `CC(C)(C)NC(=O)[C@@H]1C[C@@H]2CCCC[C@@H]2CN1C[C@@H](O)[C@H](Cc1ccccc1)NC(=O)[C@H](CC(N)=O)NC(=O)c1ccc2ccccc2n1`, the IC50 stood at 2180 nM.

The target of a further assay is T4, Type-2 angiotensin II receptor (Homo sapiens, UniProt P50052). Note: in other assays of this panel Not Active means under 50% inhibition at 10 µM.
T4 sequence (P50052 whole entry): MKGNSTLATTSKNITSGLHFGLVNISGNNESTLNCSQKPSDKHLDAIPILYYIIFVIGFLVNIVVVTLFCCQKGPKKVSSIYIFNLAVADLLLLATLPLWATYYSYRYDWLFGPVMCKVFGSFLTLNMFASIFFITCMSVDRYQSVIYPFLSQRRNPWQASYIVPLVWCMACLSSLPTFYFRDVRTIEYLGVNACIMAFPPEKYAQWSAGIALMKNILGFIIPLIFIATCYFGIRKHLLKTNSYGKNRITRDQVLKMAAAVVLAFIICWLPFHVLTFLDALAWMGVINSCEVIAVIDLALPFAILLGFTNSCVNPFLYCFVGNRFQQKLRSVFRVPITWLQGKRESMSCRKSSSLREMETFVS
Test: not given
In kind it is cell-based. As to conditions: cho-k1.
For `CC(C)(C)NC(=O)[C@@H]1C[C@@H]2CCCC[C@@H]2CN1C[C@@H](O)[C@H](Cc1ccccc1)NC(=O)[C@H](CC(N)=O)NC(=O)c1ccc2ccccc2n1`, the IC50 result was “Not Active”.

For the molecule `CC(=O)[C@@]1(O)CC[C@H]2[C@@H]3C[C@H](C)C4=CC(=O)CC[C@]4(C)[C@H]3CC[C@@]21C`, the IC50 result is recorded as “Not Active”.

Turning to `Cc1nc2n(c(=O)c1CCN1CCC(c3noc4cc(F)ccc34)CC1)CCCC2` [RISPERIDONE], the IC50 result was “Not Active”.

In the case of `Nc1nc2nc[nH]c2c(=S)[nH]1` [THIOGUANINE], the IC50 result is given as “Not Active”.

For the molecule `COc1nc(C)nc(Cl)c1NC1=NCCN1` [MOXONIDINE], the IC50 result is on record as “Not Active”.

In the case of `N[C@@H](Cc1cc(I)c(Oc2ccc(O)c(I)c2)c(I)c1)C(=O)O` [LIOTHYRONINE], the concentration for half-maximal inhibition (IC50) entry is recorded as “Not Active”.

Take `C[C@@H]1CN(c2c(F)c(N)c3c(=O)c(C(=O)O)cn(C4CC4)c3c2F)C[C@H](C)N1` [SPARFLOXACIN]: the IC50 entry was “Not Active”.

Regarding `N[C@@H](Cc1ccc(O)c(O)c1)C(=O)O` [LEVODOPA], the IC50 entry is “Not Active”.

A further assay has as its target Beta-1 adrenergic receptor (Homo sapiens, UniProt P08588). In words: DRUGMATRIX: Adrenergic beta1 radioligand binding (ligand: [125I] Cyanopindolol). The note with it: cho-k1; Not Active = under 50% inhibition at 10 µM. In kind it is cell membranes, CHO-K1, Membrane.
As for `CC(C)(C)NC(=O)[C@@H]1C[C@@H]2CCCC[C@@H]2CN1C[C@@H](O)[C@H](Cc1ccccc1)NC(=O)[C@H](CC(N)=O)NC(=O)c1ccc2ccccc2n1`, the IC50 entry is given as “Not Active”.

For `CC(=O)[C@@]1(O)CC[C@H]2[C@@H]3C[C@H](C)C4=CC(=O)CC[C@]4(C)[C@H]3CC[C@@]21C`, the IC50 entry is reported as “Not Active”.

Regarding `Cc1nc2n(c(=O)c1CCN1CCC(c3noc4cc(F)ccc34)CC1)CCCC2` [RISPERIDONE], the IC50 result is “Not Active”.

As to `Nc1nc2nc[nH]c2c(=S)[nH]1` [THIOGUANINE], the IC50 entry is given as “Not Active”.

Take `COc1nc(C)nc(Cl)c1NC1=NCCN1` [MOXONIDINE]: the IC50 entry was “Not Active”.

Take `N[C@@H](Cc1cc(I)c(Oc2ccc(O)c(I)c2)c(I)c1)C(=O)O` [LIOTHYRONINE]: the IC50 entry was “Not Active”.

For `C[C@@H]1CN(c2c(F)c(N)c3c(=O)c(C(=O)O)cn(C4CC4)c3c2F)C[C@H](C)N1` [SPARFLOXACIN], the IC50 result was “Not Active”.

For the molecule `N[C@@H](Cc1ccc(O)c(O)c1)C(=O)O` [LEVODOPA], the IC50 entry is “Not Active”.

A further assay addresses 5-hydroxytryptamine receptor 1B (Rattus norvegicus, UniProt P28564).
Test: not given
In kind it is cell membranes, Wistar, Cerebral cortex, Membrane.
Settings: not given
With `CC(C)(C)NC(=O)[C@@H]1C[C@@H]2CCCC[C@@H]2CN1C[C@@H](O)[C@H](Cc1ccccc1)NC(=O)[C@H](CC(N)=O)NC(=O)c1ccc2ccccc2n1`, the IC50 result is “Not Active”.

On to `CC(=O)[C@@]1(O)CC[C@H]2[C@@H]3C[C@H](C)C4=CC(=O)CC[C@]4(C)[C@H]3CC[C@@]21C`, for which the IC50 result is given as “Not Active”.

For `Cc1nc2n(c(=O)c1CCN1CCC(c3noc4cc(F)ccc34)CC1)CCCC2` [RISPERIDONE], the IC50 entry is “Not Active”.

For the molecule `Nc1nc2nc[nH]c2c(=S)[nH]1` [THIOGUANINE], the IC50 result was “Not Active”.

Consider `COc1nc(C)nc(Cl)c1NC1=NCCN1` [MOXONIDINE], for which the 50% inhibitory concentration (IC50) entry was “Not Active”.

Turning to `N[C@@H](Cc1cc(I)c(Oc2ccc(O)c(I)c2)c(I)c1)C(=O)O` [LIOTHYRONINE], the IC50 result is “Not Active”.

Take `C[C@@H]1CN(c2c(F)c(N)c3c(=O)c(C(=O)O)cn(C4CC4)c3c2F)C[C@H](C)N1` [SPARFLOXACIN]: the IC50 result is reported as “Not Active”.

For `N[C@@H](Cc1ccc(O)c(O)c1)C(=O)O` [LEVODOPA], the IC50 entry is “Not Active”.
